Starred links: 1 amine or outer side, 2 acyl side, 3 side chain; linkers in the order of their positions; H or OH if unused. Positions of bridges follow the written chain, without caps; N, C: chain ends. Non-standard residues stand in square brackets, D forms with d. Residues, ends and D or L forms follow the SMILES beside them. TATA = O=C(CC[*:1])N1CN(C(=O)CC[*:2])CN(C(=O)CC[*:3])C1; X1 = O=C(C[*:1])N1CCN(C(=O)C[*:2])CCN(C(=O)C[*:3])CC1; 1Nal = N[C@@H](Cc1cccc2ccccc12)C(=O)O
Molecular target: T1, P-Selectin:PSGL1 interaction (Homo sapiens, UniProt P16109)
T1 construct: host or cells: HL-60 cells (ATCC, CCL-240) supply the PSGL-1 partner endogenously
T1 sequence (P16109 42-771 limits assumed): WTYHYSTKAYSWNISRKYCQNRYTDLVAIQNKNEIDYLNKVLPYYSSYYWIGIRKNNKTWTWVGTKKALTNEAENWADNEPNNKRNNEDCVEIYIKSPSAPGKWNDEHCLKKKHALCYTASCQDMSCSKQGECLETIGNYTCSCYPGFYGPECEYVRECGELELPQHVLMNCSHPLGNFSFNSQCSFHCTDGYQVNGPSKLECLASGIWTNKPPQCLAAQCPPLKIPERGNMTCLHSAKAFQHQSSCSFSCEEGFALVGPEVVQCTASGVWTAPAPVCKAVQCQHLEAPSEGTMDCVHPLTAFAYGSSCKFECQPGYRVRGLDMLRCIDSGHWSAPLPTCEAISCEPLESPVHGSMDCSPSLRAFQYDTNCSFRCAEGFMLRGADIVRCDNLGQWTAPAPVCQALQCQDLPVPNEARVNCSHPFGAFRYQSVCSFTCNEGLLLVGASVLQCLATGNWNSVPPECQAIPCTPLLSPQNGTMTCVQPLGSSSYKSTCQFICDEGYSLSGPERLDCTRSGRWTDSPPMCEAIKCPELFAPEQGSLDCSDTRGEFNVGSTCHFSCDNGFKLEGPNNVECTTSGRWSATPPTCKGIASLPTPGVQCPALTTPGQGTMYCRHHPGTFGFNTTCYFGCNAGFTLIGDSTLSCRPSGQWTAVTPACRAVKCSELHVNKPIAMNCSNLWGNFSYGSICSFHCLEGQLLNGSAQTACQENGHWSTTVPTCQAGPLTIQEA
Assay: Receptor ligand inhibition assay (P-Selectin binding to HL-60 cells)
Assay type: cell-based
Conditions: geomean of n=3; for IC50: 5 nM P-Selectin, HL-60 cells, read-out: IC50; for Inhibition at top concentration: 100−% response at top concentration
Description: Bicycle test samples, SelG1 (Crizanlizumab) were serially diluted maintaining 0.5% DMSO in assay buffer (25 mM HEPES, 121 mM NaCl, 5.4 mM KCl, 0.8 mM MgCl2, 1.8 mM CaCl2), 6 mM […], 5.5 mM glucose, 1% BSA, pH7.4) and transferred to 384 well clear bottom plates (Corning, 3712) with a final volume of 6 μL. […], of P-Selectin in imaging buffer (25 mM HEPES, 121 mM NaCl, 5.4 mM KCl, 0.8 mM MgCl2, 1.8 mM CaCl2), 6 mM […], 5.5 mM glucose, pH7.4) was added to give a 5 nM final concentration and incubated at room temperature for 15 minutes. HL-60 cells (ATCC, CCL-240) mixed with 1 μg/mL far red labelled wheat germ agglutinin (WGA, ThermoFisher W21404) and 1 μg/mL AlexaFluor 488-streptavidin (Invitrogen S11223) were added to the plate and incubated for 2 hours at room temperature in the absence of light. Staining and antibody binding were quantified by simultaneously scanning the microplates with 488 nm and 640 nm lasers on a mirrorball microplate cytometer, AF488 on FL2 triggering on AF647-WGA on FL4. Data was analysed in Dotmatics, using a four parameter logistic fit to generate IC50 values and % response. Percent inhibition was calculated using 100−% response at top concentration.

IC50 [µM] | Inhibition at top concentration [%] | SMILES
> 3.54 | 24 | CSCC[C@@H]1NC(=O)[C@H](Cc2ccc(O)cc2)NC(=O)[C@@H](NC(=O)[C@H](C)NC(C)=O)CSCCC(=O)N2CN3CN(C2)C(=O)CCSC[C@H](NC(=O)[C@H](Cc2cccc4ccccc24)NC(=O)[C@H](CCC(=O)O)NC1=O)C(=O)N[C@@H](CC(=O)O)C(=O)N[C@@H](C(C)C)C(=O)N[C@@H]([C@@H](C)O)C(=O)N[C@@H](CC(=O)O)C(=O)N[C@@H](Cc1ccc(O)cc1)C(=O)NCC(=O)N[C@H](C(=O)N[C@@H](C)C(N)=O)CSCCC3=O [BCY11279, Ac-A-(SEQ ID NO: 4)-A] (Ac-ACYME[1Nal]CDVTDYGCA-NH2; linker 2-7-14 via TATA)
> 10.9 | 20 | CSCC[C@@H]1NC(=O)[C@H](Cc2ccc(O)cc2)NC(=O)[C@@H](NC(C)=O)CSCCC(=O)N2CN3CN(C2)C(=O)CCSC[C@H](NC(=O)[C@H](Cc2c[nH]c4ccccc24)NC(=O)[C@H](CCC(=O)O)NC1=O)C(=O)N[C@@H](CC(=O)O)C(=O)N[C@@H](C(C)C)C(=O)N[C@@H]([C@@H](C)O)C(=O)N[C@@H](CC(=O)O)C(=O)N[C@@H](Cc1ccc(O)cc1)C(=O)NCC(=O)N[C@H](C(N)=O)CSCCC3=O [BCY9717, Ac-(SEQ ID NO: 6)] (Ac-CYMEWCDVTDYGC-NH2; linker 1-6-13 via TATA; C-terminus assumed)
> 0.117 | 37 | CC(C)C[C@@H]1NC(=O)[C@H](CO)NC(=O)[C@@H]2CCCN2C(=O)[C@H](C(C)C)NC(=O)[C@H](CC(=O)O)NC(=O)[C@@H]2CSCC(=O)N3CCN(CCN(CC3)C(=O)CSC[C@@H](C(=O)N[C@@H](C)C(N)=O)NC(=O)[C@@H]3CCCN3C1=O)C(=O)CSC[C@H](NC(=O)[C@H](C)N)C(=O)N[C@@H](CC(=O)O)C(=O)N[C@@H](C)C(=O)N[C@@H](CC(=O)O)C(=O)N[C@@H](Cc1c[nH]c3ccccc13)C(=O)N2 [BCY11648, A-(SEQ ID NO: 3)-A] (H-ACDADWCDVPSLPCA-NH2; linker 2-7-14 via X1; N-terminus and C-terminus assumed)

Reference: US12150998B2, “Bicyclic peptide ligands specific for P-selectin” (BicycleTx Limited, priority 2021, dated 2024)
